Laboratory results from patent US20190367516A1 (Bayer Pharma Aktiengesellschaft, priority 2015, published 2019).
pEC50: −log10 of the molar value. Where two headings read alike, the source gives them in different places.

Key:
human M2 receptor [1] = biological target: T1, human M2 receptor (Homo sapiens, UniProt P08172); settings: for Emax: read-out: Efficiency, boosting of the acetylcholine effect at EC20 acetylcholine concentration; for Efficiency: boosting of the acetylcholine effect at EC20 acetylcholine concentration
T1 sequence (P08172 1-466): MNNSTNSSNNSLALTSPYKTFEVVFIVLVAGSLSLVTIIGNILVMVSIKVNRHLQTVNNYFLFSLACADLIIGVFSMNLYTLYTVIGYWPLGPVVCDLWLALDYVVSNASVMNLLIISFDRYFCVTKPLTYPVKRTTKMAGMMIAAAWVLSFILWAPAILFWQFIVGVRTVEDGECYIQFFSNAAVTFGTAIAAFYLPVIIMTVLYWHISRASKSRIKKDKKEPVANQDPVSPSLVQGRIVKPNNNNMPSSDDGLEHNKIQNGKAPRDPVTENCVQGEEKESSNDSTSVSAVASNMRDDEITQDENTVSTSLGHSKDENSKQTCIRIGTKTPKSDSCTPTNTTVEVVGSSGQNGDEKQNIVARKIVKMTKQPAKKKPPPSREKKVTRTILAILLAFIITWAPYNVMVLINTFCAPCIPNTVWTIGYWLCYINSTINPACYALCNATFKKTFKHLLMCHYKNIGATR

human M2 receptor [2] = biological target: T1, human M2 receptor; assay type: cell-based; settings: α >1 = positive cooperativity
[3] = Receptor activity EC50, M2-GIRK1/4 activation test, acetylcholine at EC20, allosteric potency, in some cases mean values from two or more determinations
[4] = shift in the acetylcholine dose-response curve (Allosteric EC50 shift, GraphPad PRISM)
[5] = Receptor activity EC50, allosteric potency at EC20 acetylcholine, M2-GIRK1/4 reporter cells, in some cases mean of two or more determinations
[6] = shift of acetylcholine dose-response curve (Allosteric EC50 shift)
[7] = read-out: Receptor activity EC50, allosteric potency at EC20 acetylcholine, M2-GIRK1/4 reporter cells, in some cases mean of two or more determinations

SMILES | pEC50 (human M2 receptor [1]; [3]) | Cooperativity (alpha factor) (human M2 receptor [2]; [4]) | pEC50 (human M2 receptor [1]; [5]) | Emax (human M2 receptor [1]; M2-GIRK1/4 reporter cells) [%] | Cooperativity (alpha factor) (human M2 receptor [2]; [6]) | Efficiency (human M2 receptor [1]; M2-GIRK1/4 reporter cells) [%] | pEC50 (human M2 receptor [1]; [7])
O=C(NC(c1c(F)cccc1F)C(F)(F)F)c1cn(-c2ccc(F)cc2F)c2nc(N3C[C@@H](O)CC3=O)ccc2c1=O (single isomer, unassigned) [Example 246] | 7.64 | 53 |  |  |  |  | 
O=C(NC(c1c(F)cccc1F)C(F)(F)F)c1cn(-c2ccc(F)cc2F)c2nc(N3CCCC(O)C3=O)ccc2c1=O (single isomer, unassigned) [Example 250, 1-(2,4-Difluorophenyl)-N-[1-(2,6-difluorophenyl)-2,2,2-trifluoroethyl]-7-[3-hydroxy-2-oxopiperidin-1-yl]-4-oxo-1,4-dihydro-1,8-naphthyridine-3-carboxamide] | 7.00 | 27 |  |  |  |  | 
O=C(NC(c1c(F)cccc1F)C(F)(F)F)c1cn(-c2ccc(F)cc2F)c2nc(N3CCC(O)CC3=O)ccc2c1=O (single isomer, unassigned) [Example 255, 1-(2,4-Difluorophenyl)-N-[1-(2,6-difluorophenyl)-2,2,2-trifluoroethyl]-7-[4-hydroxy-2-oxopiperidin-1-yl]-4-oxo-1,4-dihydro-1,8-naphthyridine-3-carboxamide] | 7.08 | 31 |  |  |  |  | 
CC[C@@H](NC(=O)c1cn(-c2c(F)cc(F)cc2F)c2nc(N3CCC(O)C3=O)ccc2c1=O)C(F)(F)F (single isomer, unassigned) [Example 281] | 7.47 | 44 |  |  |  |  | 
O=C(NC(c1ccccc1Cl)C(F)(F)F)c1cn(-c2ccccc2F)c2nc(N3CCC(O)C3=O)ccc2c1=O (single isomer, unassigned) [Example 288] | 7.40 | 12 |  |  |  |  | 
CC[C@@H](NC(=O)c1cn(-c2c(F)cccc2F)c2nc(N3CCC(O)C3=O)ccc2c1=O)C(F)(F)F (single isomer, unassigned) [Example 294] | 7.19 | 31 |  |  |  |  | 
CC[C@@H](NC(=O)c1cn(-c2c(F)cccc2F)c2nc(N3CC4CC4(O)C3)ccc2c1=O)C(F)(F)F (single isomer, unassigned) [Example 305] | 7.92 | 23 |  |  |  |  | 
CC[C@@H](NC(=O)c1cn(-c2c(F)cccc2F)c2nc(N3CC4CC4(O)C3)ccc2c1=O)C(F)(F)F (single isomer, unassigned) [Example 306] | 7.28 | 21 |  |  |  |  | 
CC[C@@H](NC(=O)c1cn(-c2ccc(F)cc2F)c2nc(N3CC4CC4(O)C3)ccc2c1=O)C(F)(F)F (single isomer, unassigned) [Example 314] | 7.57 | 24 |  |  |  |  | 
CC[C@@H](NC(=O)c1cn(-c2ccc(F)cc2F)c2nc(N3CC4CC4(O)C3)ccc2c1=O)C(F)(F)F (single isomer, unassigned) [Example 315] | 7.42 | 25 |  |  |  |  | 
CC[C@H](NC(=O)c1cn(-c2c(F)cc(F)cc2Cl)c2nc(N3C[C@@H](O)CC3=O)ccc2c1=O)C(F)(F)F (single isomer, unassigned) [Example 399] |  |  | 7.40 | 96.5 | 11 |  | 
CCC(COC(F)(F)F)NC(=O)c1cn(-c2c(F)cc(F)cc2F)c2nc(N3C[C@@H](O)CC3=O)ccc2c1=O (single isomer, unassigned) [Example 412] |  |  | 7.80 |  | 34 | 98.0 | 
CC[C@H](NC(=O)c1cn(-c2c(F)cc(F)cc2Cl)c2nc(N3CCC(C)C3=O)ccc2c1=O)C(F)(F)F (single isomer, unassigned) [Example 424] |  |  | 8.15 |  | 15 | 99.0 | 
CC[C@H](NC(=O)c1cn(-c2c(F)cc(F)cc2Cl)c2nc(N3CCC(C)C3=O)ccc2c1=O)C(F)(F)F (single isomer, unassigned) [Example 425] |  |  | 8.30 |  | 9 | 90.5 | 
CC[C@@H](NC(=O)c1cn(-c2ccc(F)cc2F)c2nc(N3CC(C)NC3=O)ccc2c1=O)C(F)(F)F (single isomer, unassigned) [Example 432] |  |  | 7.40 | 94 | 26 |  | 
O=C(NC(CC(F)(F)F)C1CC1)c1cn(-c2c(F)cc(F)cc2F)c2nc(N3C[C@@H](O)[C@H](O)C3)ccc2c1=O (single isomer, unassigned) [Example 439] |  |  | 7.70 | 100 | 35 |  | 
CCC1CCN(c2ccc3c(=O)c(C(=O)N[C@@H](C4CC4)C(F)(F)F)cn(-c4c(F)cc(F)cc4F)c3n2)C(=O)N1 (single isomer, unassigned) [Example 448, N-[(1 S)-1-Cyclopropyl-2,2,2-trifluoroethyl]-7-[4-ethyl-2-oxotetrahydropyrimidin-1(2H)-yl]-4-oxo-1-(2,4,6-trifluorophenyl)-1,4-dihydro-1,8-naphthyridine-3-carboxamide] |  |  | 7.72 |  | 22 | 97.0 | 
CC[C@@H](COC(F)(F)F)NC(=O)c1cn(-c2c(F)cc(F)cc2F)c2nc(N3C[C@@H](C)NC3=O)ccc2c1=O (single isomer, unassigned) [Example 454] |  |  | 8.15 | 100 | 28 |  | 
CC[C@@H](COC(F)(F)F)NC(=O)c1cn(-c2c(F)cc(F)cc2F)c2nc(N3C[C@@H](C)NC3=O)ccc2c1=O (single isomer, unassigned) [Example 455] |  |  | 8.00 |  | 17 | 100.0 | 
O=C(NC(C1CCC1)C(F)(F)F)c1cn(-c2c(F)cc(F)cc2F)c2nc(N3C[C@@H](O)CC3=O)ccc2c1=O (single isomer, unassigned) [Example 506] |  |  | 8.15 | 100 | 57 |  | 
O=C(NC(C1CCC1)C(F)(F)F)c1cn(-c2c(F)cc(F)cc2F)c2nc(N3C[C@@H](O)CC3=O)ccc2c1=O (single isomer, unassigned) [Example 507] |  |  | 8.22 |  | 37 | 98.0 | 
CC(NC(=O)c1cn(-c2c(F)cc(F)cc2F)c2nc(N3C[C@@H](O)CC3=O)ccc2c1=O)(C1CC1)C(F)(F)F (single isomer, unassigned) [Example 510] |  |  | 8.22 |  | 46 | 94.0 | 
O=C(NC(CC(F)(F)F)C1CC1)c1cn(-c2c(F)cc(F)cc2F)c2nc(N3C[C@@H](O)CC3=O)ccc2c1=O (single isomer, unassigned) [Example 514] |  |  |  |  | 30 | 99.0 | 8.00
CCC(NC(=O)c1cn(-c2c(F)cc(F)cc2F)c2nc(N3C[C@@H](O)CC3=O)ccc2c1=O)C(F)(F)C(F)(F)F (single isomer, unassigned) [Example 521] |  |  |  |  | 72 | 100.0 | 8.70
CC(C)C(NC(=O)c1cn(-c2c(F)cc(F)cc2F)c2nc(N3C[C@@H](O)CC3=O)ccc2c1=O)C(F)(F)F (single isomer, unassigned) [Example 527] |  |  | 8.30 | 100 | 61 |  | 
CC(C)C(NC(=O)c1cn(-c2c(F)cc(F)cc2F)c2nc(N3C[C@@H](O)CC3=O)ccc2c1=O)C(F)(F)F (single isomer, unassigned) [Example 528] |  |  | 8.22 |  | 66 | 100.0 | 
O=C(N[C@@H](C1CC1)C(F)(F)F)c1cn(-c2c(F)cc(F)cc2Cl)c2nc(N3C[C@@H](O)[C@H](O)C3)ccc2c1=O (single isomer, unassigned) [Example 548] |  |  | 8.05 |  | 37 | 100.0 | 
CC(C)C(NC(=O)c1cn(-c2c(F)cc(F)cc2F)c2nc(N3C[C@@H](O)[C@H](O)C3)ccc2c1=O)C(F)(F)F (single isomer, unassigned) [Example 553] |  |  | 7.89 | 97.5 | 49 |  | 
